What is called IC50 is the midpoint of a concentration-inhibition curve. Read a low IC50 as higher potency.

Experimental findings from patent US7879838B2, “Heteroaryl substituted pyrazinyl-piperazine-piperidines with CXCR3 antagonist activity” (Schering Corporation, priority 2005, dated 2011) are described below.

The target of the experiment is T1, Human CXCR3 (N-delta 4) (Homo sapiens, UniProt P49682).
T1 construct: CD8 leader (N); Flag tag; expressed in transfected cells; membranes prepared
T1 sequence (P49682 5-368 limits assumed): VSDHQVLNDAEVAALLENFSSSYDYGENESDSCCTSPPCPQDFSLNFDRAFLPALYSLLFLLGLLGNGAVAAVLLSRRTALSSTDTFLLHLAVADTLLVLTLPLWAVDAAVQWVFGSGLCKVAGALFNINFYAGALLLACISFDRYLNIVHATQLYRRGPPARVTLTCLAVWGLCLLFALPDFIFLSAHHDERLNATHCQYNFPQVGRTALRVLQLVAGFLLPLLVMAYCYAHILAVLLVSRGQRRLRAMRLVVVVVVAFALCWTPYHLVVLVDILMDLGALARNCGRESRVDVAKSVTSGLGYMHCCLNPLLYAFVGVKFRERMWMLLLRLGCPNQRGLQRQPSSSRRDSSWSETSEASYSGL
Briefly: Human CXCR3 (N-delta 4) scintillation proximity assay (SPA), [125I] IP-10 binding to Ba/F3-hCXCR3 membranes. Particulars: IC50 rating; 25 pM [125I] IP-10, membranes of Ba/F3 cells expressing human CXCR3 (N-delta 4). The text has this:
The inventive compounds can readily be evaluated to determine activity at The CXCR3 receptors by known methods, such as, for example, Development of Human CXCR3 (N-delta 4) Binding Assay.
Cloning and Expression of Human CXCR3 (N-delta 4):
The DNA encoding human CXCR3 was cloned by PCR using human genomic DNA (Promega, Madison, Wis.) as a template. The PCR primers were designed based on the published sequence of human orphan receptor GPR9 (1) with incorporated restriction sites, a Kozak consensus sequence, CD8 leader and Flag tag. The PCR product was subcloned into the mammalian expression vector pME18Sneo, a derivative of the SR-alpha expression vector (designated as pME18Sneo-hCXCR3 (N-delta 4).
IL-3-dependent mouse pro-B cells Ba/F3 were transfected by electroporation in 0.4 ml Dulbecco's PBS containing 4×10^6 cells with 20 μg of pME18Sneo-hCXCR3 (N-delta 4) plasmid DNA. Cells were pulsed at 400 Volts, 100 OHMs, 960 μFd. The transfected cells were under selection with 1 mg/ml G418 (Life Technologies, Gaithersburg, Md.). G418-resistant Ba/F3 clones were screened for CXCR3 expression by specific binding of [^125I] IP-10 (NEN Life Science Products, Boston, Mass.).
Preparation of Ba/F3-hCXCR3 (N-delta 4) Membranes
Ba/F3 cells expressing human CXCR3 (N-delta 4) were pelleted and resuspended in the lysis buffer containing 10 mM HEPES, pH 7.5 and Complete® protease inhibitors (1 tablet per 100 ml) (Boehringer Mannheim, Indianapolis, Ind.) at a cell density of 20×10^6 cells per ml. After 5 minutes incubation on ice, cells were transferred to 4639 cell disruption bomb (Parr Instrument, Moline, Ill.) and applied with 1,500 psi of nitrogen for 30 minutes on ice. Large cellular debris was removed by centrifugation at 1,000×g. Cell membrane in the supernatant was sedimented at 100,000×g. The membrane was resuspended in the lysis buffer supplemented with 10% sucrose and stored at −80° C. Total protein concentration of the membrane was determined by BCA method from Pierce (Rockford, Ill.).
Human CXCR3 (N-delta 4) Scintillation Proximity Assay (SPA)
For each assay point, 2 μg of membrane was preincubated for 1 hr with 300 μg wheat germ agglutinin (WGA) coated SPA beads (Amersham, Arlington Heights, Ill.) in the binding buffer (50 mM HEPES, 1 mM CaCl2, 5 mM MgCl2, 125 mM NaCl, 0.002% NaN3, 1.0% BSA) at room temperature. The beads were spun down, washed once, resuspended in the binding buffer and transferred to a 96-well Isoplate (Wallac, Gaithersburg, Md.). 25 pM of [^125I] IP-10 with tested compounds in a series of titration were added to start the reaction. After 3 hr reaction at room temperature, the amount of [^125I] IP-10 bound to the SPA beads was determined with a Wallac 1450 Microbeta counter.
The Ki values for the various example compounds of the present invention are given in the afore-mentioned Table 1. From these values, it would be apparent to the skilled artisan that the compounds of the invention have excellent utility CXCR3 antagonists.

With `CC[C@H]1CN(c2nc(N)c(C(N)=O)nc2Cl)CCN1C1CCN(C(=O)c2ncc(C)nc2N)CC1` [compound 115], the IC50 is more than 0.1 µM.
Molecule `CC[C@H]1CN(c2ncc(C(=O)NC(C)C)nc2Cl)CCN1C1CCN(C(=O)c2ccc(Cl)nc2N)CC1` [compound 118] came in with an IC50 of less than 0.025 µM.
With `CC[C@H]1CN(c2nc(N)c(C(N)=O)nc2Cl)CCN1C1CCN(C(=O)c2cc(F)c(N)nc2Cl)CC1` [compound 96] the figure was more than 0.1 µM; with `CC[C@H]1CN(c2nc(N)c(C(=O)NCCNS(C)(=O)=O)nc2Cl)CCN1C1CCN(C(=O)c2ccc(Cl)nc2N)CC1` [compound 50], 0.025 to 0.1 µM; with `CCNC(=O)c1cnc(N2C[C@H](CC)N(C3CCN(C(=O)c4ccc(Cl)nc4N)CC3)C[C@H]2C)c(C)n1` [compound 160], less than 0.025 µM.
With `CC[C@H]1CN(c2ncc(C(N)=O)nc2C)CCN1C1CCN(C(=O)c2ccc(Cl)nc2N)CC1` [compound 129] the figure was less than 0.025 µM; with `CC[C@H]1CN(c2nc(N)c(C(=O)NC)nc2Cl)CCN1C1CCN(C(=O)c2cc(F)c(Cl)nc2N)CC1` [compound 13], less than 0.025 µM.
`CC[C@H]1CN(c2nc(N)c(C(=O)NNC(=O)C3CC3)nc2Cl)CCN1C1CCN(C(=O)c2ccc(Cl)nc2N)CC1` [compound 86] had a concentration for half-maximal inhibition (IC50) of more than 0.1 µM.
With `CC[C@H]1CN(c2nc(N)c(C(=O)NC3CC3)nc2C)[C@H](C)CN1C1CCN(C(=O)c2ccc(Cl)nc2N)CC1` [compound 175] the figure was less than 0.025 µM.
With `CC[C@H]1CN(c2nc(N)c(C(=O)NCCO)nc2Cl)CCN1C1CCN(C(=O)c2ccc(C(F)(F)F)nc2N)CC1` [compound 63] the figure was 0.025 to 0.1 µM; with `CC[C@H]1CN(c2nc(N)c(C(=O)N[C@@H]3CC[C@@H]3O)nc2Cl)CCN1C1CCN(C(=O)c2ccc(Cl)nc2N)CC1` [compound 9], less than 0.025 µM; with `CC[C@H]1CN(c2nc(N)c(C(=O)NC)nc2Cl)CCN1C1CCN(C(=O)c2cnc(C)cn2)CC1` [compound 112], more than 0.1 µM.
With `CC[C@H]1CN(c2nc(N)c(C(=O)NC)nc2Cl)CCN1C1CCN(Cc2coc3ccc(Cl)cc3c2=O)CC1` [compound 140] the figure was less than 0.025 µM; with `CC[C@H]1CN(c2nc(N)c(C(=O)NCCO)nc2Cl)CCN1C1CCN(Cc2ccc(N3CCOCC3)nc2Cl)CC1` [compound 92], more than 0.1 µM; with `CC[C@H]1CN(c2nc(N)c(C(=O)NCCN3CCCC3)nc2Cl)CCN1C1CCN(C(=O)c2ccc(Cl)nc2N)CC1` [compound 52], 0.025 to 0.1 µM.
`CC[C@H]1CN(c2nc(N)c(C(=O)N(C)OC)nc2Cl)CCN1C1CCN(C(=O)c2ccc(Cl)nc2N)CC1` [compound 137] had an IC50 of more than 0.1 µM.
The value for `CC[C@H]1CN(c2nc(N)c(C(=O)NC3(CO)CC3)nc2Cl)CCN1C1CCN(C(=O)c2ccc(Cl)nc2N)CC1` [compound 24] was less than 0.025 µM; that for `CC[C@H]1CN(c2nc(N)c(C(N)=O)nc2Cl)CCN1C1CCN(CC2COc3ccccc3O2)CC1` (some centres unmarked) [compound 113] was more than 0.1 µM; that for `CC[C@H]1CN(c2nc(N)c(C(=O)NCCO)nc2Cl)CCN1C1CCN(C(=O)c2ccc(Cl)nc2NC)CC1` [compound 91] was more than 0.1 µM.
For `CC[C@H]1CN(c2nc(N)c(C(=O)Nc3ccon3)nc2Cl)CCN1C1CCN(C(=O)c2ccc(Cl)nc2N)CC1` [compound 33], the IC50 is less than 0.025 µM.
The value for `CC[C@H]1CN(c2nc(N)c(C(=O)Nc3cc(C)[nH]n3)nc2Cl)CCN1C1CCN(C(=O)c2ccc(Cl)nc2N)CC1` [compound 132] was 0.025 to 0.1 µM; that for `CC[C@H]1CN(c2nc(N)c(C(=O)Nc3ncc[nH]3)nc2Cl)CCN1C1CCN(C(=O)c2ccc(Cl)nc2N)CC1` [compound 28] was less than 0.025 µM.
The molecule `CC[C@H]1CN(c2nc(NCCC(=O)OC)c(C(=O)NC3CC3)nc2Cl)CCN1C1CCN(C(=O)c2ccc(Cl)nc2N)CC1` [compound 30] had an IC50 of less than 0.025 µM.
With `CC[C@H]1CN(c2ncc(C(=O)NC3CCC3)nc2C(F)(F)F)CCN1C1CCN(C(=O)c2ccc(Cl)nc2N)CC1` [compound 181] the figure was less than 0.025 µM; with `CC[C@H]1CN(c2nc(NCc3ccc(F)c(F)c3)c(C(=O)OC)nc2Cl)CCN1C1CCN(C(=O)c2ccc(Cl)nc2N)CC1` [compound 60], 0.025 to 0.1 µM; with `CC[C@H]1CN(c2nc(N)c(C(N)=O)nc2Cl)CCN1C1CCN(C(=O)c2cc(F)c(Cl)nc2Cl)CC1` [compound 56], 0.025 to 0.1 µM.
With `CC[C@H]1CN(c2nc(NCC3CC3)c(C(N)=O)nc2Cl)CCN1C1CCN(C(=O)c2ccc(Cl)nc2N)CC1` [compound 84] the figure was more than 0.1 µM; with `CC[C@H]1CN(c2nc(N)c(C(=O)NCCC#N)nc2Cl)CCN1C1CCN(C(=O)c2ccc(Cl)nc2N)CC1` [compound 26], less than 0.025 µM; with `CC[C@H]1CN(c2nc(N)c(C(=O)NC3CCS(=O)(=O)C3)nc2Cl)CCN1C1CCN(C(=O)c2ccc(Cl)nc2N)CC1` (some centres unmarked) [compound 54], 0.025 to 0.1 µM.
With `CC[C@H]1CN(c2nc(N)c(C(=O)NC[C@@H](C)O)nc2Cl)CCN1C1CCN(C(=O)c2ccc(Cl)nc2N)CC1` [compound 8] the figure was less than 0.025 µM; with `CC[C@H]1CN(c2nc(N)c(C(=O)NNC(C)=O)nc2Cl)CCN1C1CCN(C(=O)c2ccc(Cl)nc2N)CC1` [compound 134], 0.025 to 0.1 µM; with `CC[C@H]1CN(c2ncc(C(=O)NC(C)(C)C)nc2C)CCN1C1CCN(C(=O)c2ccc(Cl)nc2N)CC1` [compound 170], less than 0.025 µM.
In the case of `CC[C@H]1CN(c2ncc(C(=O)NC3(C)CC3)nc2C)[C@H](C)CN1C1CCN(C(=O)c2ccc(Cl)nc2N)CC1` [compound 174], the IC50 was less than 0.025 µM.
The value for `CC[C@H]1CN(c2nc(N)c(C(=O)NC3CC3)nc2Cl)CCN1C1CCN(C(=O)c2cc(F)c(N)nc2Cl)CC1` [compound 78] was more than 0.1 µM; that for `CC[C@H]1CN(c2nc(N)c(C(=O)NCCCN(C)C)nc2Cl)CCN1C1CCN(C(=O)c2ccc(Cl)nc2N)CC1` [compound 98] was more than 0.1 µM.
With `CC[C@H]1CN(c2nc(N)c(C(=O)NC3CCOC3)nc2Cl)CCN1C1CCN(C(=O)c2ccc(Cl)nc2N)CC1` (some centres unmarked) [compound 51] the figure was 0.025 to 0.1 µM; with `CC[C@H]1CN(c2nc(N)c(C(N)=O)nc2Cl)CCN1C1CCN(C(=O)c2ccc(Cl)c3cc[nH]c23)CC1` [compound 152], more than 0.1 µM.
With `CC[C@H]1CN(c2nc(N)c(C(N)=O)nc2Cl)CCN1C1CCN(C2OC(C(=O)N(C)C)c3cc(Cl)ccc32)CC1` (some centres unmarked) [compound 147] the figure was 0.025 to 0.1 µM; with `CC[C@H]1CN(c2nc(N)c(C(=O)NC)nc2Cl)CCN1C1CCN(Cc2cc(Cl)nc(Cl)c2)CC1` [compound 108], more than 0.1 µM; with `CCNC(=O)c1cnc(N2CCN(C3CCN(C(=O)c4ccc(Cl)nc4N)CC3)[C@@H](CC)C2)c(C)n1` [compound 126], less than 0.025 µM.
Turning to `CC[C@H]1CN(c2nc(N)c(C(=O)N[C@@H]3C[C@@H]3F)nc2Cl)CCN1C1CCN(C(=O)c2ccc(Cl)nc2N)CC1` [compound 37], the 50% inhibitory concentration (IC50) was less than 0.025 µM.
With `CC[C@H]1CN(c2nc(N)c(C(=O)NC3CC3)nc2Cl)CCN1C1CCN(C(=O)c2cc(F)c(Cl)nc2N)CC1` [compound 6] the figure was less than 0.025 µM; with `CCOC(=O)C1(NC(=O)c2nc(Cl)c(N3CCN(C4CCN(C(=O)c5ccc(Cl)nc5N)CC4)[C@@H](CC)C3)nc2N)CC1` [compound 76], more than 0.1 µM; with `CC[C@H]1CN(c2nc(N)c(C(N)=O)nc2Cl)CCN1C1CCN(Cc2ccc(Cl)nc2)CC1` [compound 49], 0.025 to 0.1 µM.
